Test results reported in US5340833A, “Urokinase inhibitors” (Eisai Co., Ltd., priority 1992, dated 1994).
Structures can show the parent of a compound that is named as a salt. Where two headings read alike, the source gives them in different places.

What was measured:
urokinase = target: T1, urokinase (Homo sapiens, UniProt P00749); test: Urokinase Indirect (Plasminogen-Linked) Assay; type: biochemical
T1 construct: human high molecular weight urokinase; purchased American Diagnostica, Greenwich, Conn
Method: (ii) An indirect plasminogen-linked assay in which urokinase proteolytically activates plasminogen, forming plasmin which then cleaves a synthetic tripeptide pNA plasmin substrate.
Incubations were carried out at 22° C. for 45-60 minutes or until adequate color developed. Color qas quantitated as in the urokinase direct assay above. Parallel incubations were performed with and without plasminogen, and corrected absorbance values were obtained by subtracting values obtained without plasminogen from those obtained with plasminogen, eliminating any contribution of direct cleavage, if any, of plasmin substrate by urokinase.

human two-chain tPA = target: T2, human two-chain tPA (Homo sapiens, UniProt P00750); test: tPA Indirect (Plasminogen-Linked) Assay (tPA Direct Assay result where lower); type: biochemical; conditions: for tPA/UPA ratio: ratio with respect to urokinase indirect plasminogen-linked IC50, larger = greater specificity for urokinase; for IC50: tPA Indirect Plasminogen-Linked Assay, in rare cases direct assay result if lower, read-out: tPA IC50; for inhibition at 1000 µM: read-out: tPA activity observed relative to inhibitor-free controls
T2 construct: human two-chain tPA was substituted for urokinase; purchased American Diagnostica
T2 sequence (P00750 311-562 limits assumed): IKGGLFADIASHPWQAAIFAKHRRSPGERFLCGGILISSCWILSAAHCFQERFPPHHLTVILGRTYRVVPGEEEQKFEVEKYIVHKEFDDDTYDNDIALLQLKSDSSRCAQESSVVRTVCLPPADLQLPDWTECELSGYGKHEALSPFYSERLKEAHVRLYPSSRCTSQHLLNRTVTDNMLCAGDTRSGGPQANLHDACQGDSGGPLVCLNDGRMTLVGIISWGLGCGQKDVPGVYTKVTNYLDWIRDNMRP
T2 sequence (P00750 36-310 limits assumed): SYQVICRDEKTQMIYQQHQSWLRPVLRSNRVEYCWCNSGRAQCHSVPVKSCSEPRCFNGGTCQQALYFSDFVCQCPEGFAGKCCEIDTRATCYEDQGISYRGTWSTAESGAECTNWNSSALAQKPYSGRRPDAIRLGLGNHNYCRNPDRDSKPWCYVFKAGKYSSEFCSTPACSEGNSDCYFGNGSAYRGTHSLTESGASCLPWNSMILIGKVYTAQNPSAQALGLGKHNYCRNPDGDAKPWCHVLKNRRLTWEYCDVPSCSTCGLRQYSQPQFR
Excerpt: (iv) Both direct and plasminogen-linked pNA assays for tPA, the other mammalian plasminogen activator and the key initiator of blood clot dissolution or fibrinolysis. Since urokinase and tPA share an absolute specificity for the same peptide bond in plasminogen, urokinase inhibitors designed to block cellular invasiveness must be highly specific for urokinase over tPA in order to avoid serious thrombotic side effects secondary to undesired blockage of normal fibrinolysis. […] Spectrozyme tPA®, American Diagnostica) was substituted for urokinase substrate.

human plasmin = target: T3, human plasmin (Homo sapiens, UniProt P00747); test: Plasmin Assay; type: biochemical; conditions: for PLM/uPA ratio: ratio with respect to urokinase indirect plasminogen-linked IC50, larger = greater specificity for urokinase; for IC50: read-out: PLASMIN IC50; for inhibition at 1000 µM: read-out: PLASMIN activity observed relative to inhibitor-free controls
T3 construct: plasmin, the potent general protease produced by cleavage of plasminogen by either urokinase or tPA; purchased American Diagnostica
T3 sequence (P00747 581-810 limits assumed): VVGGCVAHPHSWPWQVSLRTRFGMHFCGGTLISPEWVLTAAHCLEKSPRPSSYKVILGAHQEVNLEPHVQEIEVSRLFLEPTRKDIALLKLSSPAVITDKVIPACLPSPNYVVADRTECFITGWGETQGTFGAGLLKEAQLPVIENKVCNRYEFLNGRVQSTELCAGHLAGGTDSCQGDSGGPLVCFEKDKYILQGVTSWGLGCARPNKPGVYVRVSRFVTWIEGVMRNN
T3 sequence (P00747 97-580 limits assumed): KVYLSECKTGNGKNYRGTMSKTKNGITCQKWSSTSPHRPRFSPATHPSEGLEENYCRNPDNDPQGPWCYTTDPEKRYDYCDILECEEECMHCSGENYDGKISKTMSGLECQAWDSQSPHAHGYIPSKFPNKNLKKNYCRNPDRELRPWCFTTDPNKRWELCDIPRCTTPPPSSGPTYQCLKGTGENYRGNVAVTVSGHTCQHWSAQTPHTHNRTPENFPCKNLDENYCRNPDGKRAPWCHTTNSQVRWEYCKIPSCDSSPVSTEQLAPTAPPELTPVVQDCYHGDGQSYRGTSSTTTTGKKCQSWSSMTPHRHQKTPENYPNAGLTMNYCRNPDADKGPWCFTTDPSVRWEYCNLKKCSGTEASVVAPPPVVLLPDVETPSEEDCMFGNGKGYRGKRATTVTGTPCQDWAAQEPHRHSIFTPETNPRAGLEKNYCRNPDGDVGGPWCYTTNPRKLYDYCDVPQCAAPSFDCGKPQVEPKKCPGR
Method: (v) A chromogenic pNA assay for plasmin, the potent general protease produced by cleavage of plasminogen by either urokinase or tPA. Although urokinase initiates cellular invasiveness by generating plasmin, the additional importance of plasmin in tPA-mediated fibrinolysis dictates that plasmin itself should be free from inhibition by urokinase inhibitors designed as anti-invasiveness agents. […] All other assay conditions, as well as methods of color quantitation, were carried out as described above for the urokinase direct assay.

[1] = system: HT1080 human fibrosarcoma cells; test: Cell-based [^3 H]Fibronectin Degradation Assay; conditions: plasminogen-dependent, FIG. 4
Method: Fifty microliter volumes of HT1080 cell suspensions (harvested without trypsinization) containing 1×10^6 cells/ml were then added, and the incubations continued for 18 hours at 37° C. in a humidified atmosphere containing 5% CO2. Radioactivity levels in 50 μl aliquots of the supernatants was then determined by liquid scintillation counting.

[2] = target: T4, human high molecular weight urokinase (Homo sapiens, UniProt P00749); test: Urokinase Direct Assay; type: biochemical
T4 construct: human high molecular weight urokinase; purchased American Diagnostica, Greenwich, Conn
Method: (i) A direct chromogenic assay in which urokinase cleaves a synthetic tripeptide p-nitroanilide (pNA) urokinase substrate.
Incubations were carried out at 37° C. for approximately 2 hours or until adequate yellow color developed. Color was quantitated by measuring absorbance at 405 nm (A405) using a Titertek Multiskan MCC/340 MK II microtiter plate spectrophotometer.

[3] = Table 3 column 4, simple number, unit inferred, read-out: uPA Indirect (plasminogen-linked) IC50

Compound | IC50 (urokinase; [3]) | tPA/UPA ratio (human two-chain tPA) | IC50 (human two-chain tPA) | PLM/uPA ratio (human plasmin) | IC50 (human plasmin) | inhibition of cellular degradation of [^3 H]fibronectin [1] | inhibition at 1000 µM (human plasmin) | IC50 [2] | IC50 (urokinase; uPA Indirect (plasminogen-linked) IC50, Table 3, unit inferred) | inhibition at 1000 µM (human two-chain tPA) | residual urokinase activity at 1000 µM ([2]; read-out: uPA Direct: percentage of residual urokinase activity relative to inhibitor-free controls)
CC(C)C=Cc1cccc2sc(C(=N)N)cc12 [Compound 22, 4-(E/Z-3-Methylbut-1-enyl)benzo[b]thiophene-2-carboxamidine hydrochloride] | 0.11 µM | 391 | 43 µM | 2218 | 244 µM | effective inhibitors | – | – | – | – | –
Cl.N=C(N)c1cc2c(CO)cccc2s1 [Compound 56, 4-(Hydroxymethyl)benzo[b]thiophene-2-carboxamidine hydrochloride] | 0.88 µM | 640 | 563 µM | ≥ 1500 | – | – | 67% | – | – | – | –
CCC/C=C/c1cccc2sc(C(=N)N)cc12.Cl [Compound 25, 4-(E-Pent-1-enyl)benzo[b]thiophene-2-carboxamidine hydrochloride] | 0.14 µM | 343 | 48 µM | 1471 | 206 µM | – | – | – | – | – | –
Cl.N=C(N)c1cc2cc(-c3ccco3)ccc2s1 [Compound 126, 5-(Furan-2-yl)benzo[b]thiophene-2-carboxamidine hydrochloride] | 0.7 µM | 200 | 140 µM | 763 | 534 µM | – | – | – | – | – | –
CCCCc1cccc2sc(C(=N)N)cc12.Cl [Compound 10, 4-Butylbenzo[b]thiophene-2-carboxamidine hydrochloride] | 0.42 µM | 352 | 148 µM | 907 | 381 µM | – | – | – | – | – | –
Cl.N=C(N)c1cc2c(C#Cc3ccc4c(c3)OCO4)cccc2s1 [Compound 77, 4-[(Benzo-1,3-dioxolan-5-yl)ethynyl]benzo[b]thiophene-2-carboxamidine hydrochloride] | 0.059 µM | 142 | 8.4 µM | ≈ 4240 | ~250 µM | – | – | – | – | – | –
Cl.N=C(N)c1cc2ccc3ccccc3c2s1 [Compound 312, Naphtho[1,2-b]thiophene-2-carboxamidine hydrochloride] | 1.9 µM | > 50 | > 100 µM | > 50 | > 100 µM | – | – | – | – | – | –
Cl.N=C(N)c1cc2c(-c3ccc(-c4ccccc4)o3)cccc2s1 [Compound 78, 4-(5-Phenylfur-2-yl)benzo[b]thiophene-2-carboxamidine hydrochloride] | 0.49 µM | 53 | 26 µM | ≈ 500 | ~250 µM | – | – | – | – | – | –
CCc1cccc2sc(C(=N)N)cc12.Cl [Compound 7, 4-Ethylbenzo[b]thiophene-2-carboxamidine hydrochloride] | 0.7 µM | 263 | 184 µM | 610 | 427 µM | – | – | – | – | – | –
N=C(N)c1cc2c(/C=C/c3cccc4sc(C(=N)N)cc34)cccc2s1 [Compound 73, 4-[E-2-(2-Carboxamidinobenzothien-4-yl)ethenyl]benzo[b]thiophene-2-carboxamidine bis-hydrochloride] | 0.17 µM | 15.9 | 2.7 µM | 147 | 25 µM | – | – | – | – | – | –
N=C(N)c1ccc(/C=C/c2ccc3sc(C(=N)N)cc3c2)cc1 [Compound 122, 5-[E-2-(4-Carboxamidinophenyl)ethenyl]benzo[b]thiophene-2-carboxamidine bis-hydrochloride] | 0.98 µM | 1.48 | 1.45 µM | 367 | 360 µM | – | – | – | – | – | –
C=Cc1ccc2sc(C(=N)N)cc2c1SC.Cl [Compound 201, 4-(Methylthio)-5-ethenylbenzo[b]thiophene-2-carboxamidine hydrochloride] | – | 30 | 20 µM | 65 | 43 µM | – | – | 4.4 µM | 0.67 µM | – | –
Cl.N=C(N)c1cc2c(-c3ccccc3)cccc2s1 [Compound 44, 4-Phenylbenzo[b]thiophene-2-carboxamidine hydrochloride] | 1.1 µM | 58 | 64 µM | 800 | 881 µM | – | – | – | – | – | –
C=CCOCc1cc2ccc3sc(C(=N)N)cc3c2s1 [Compound 208, 5-(Prop-2-en-1-yloxymethyl)thieno[4,5-b]benzo[b]thiophene-2-carboxamidine hydrochloride] | 0.3 µM | 190 | 57 µM | 910 | 273 µM | – | – | – | – | – | –
Cl.N=C(N)c1cc2cc(I)ccc2s1 [Compound 104, 5-Iodobenzo[b]thiophene-2-carboxamidine hydrochloride] | 2.4 µM | ≥ 500 | – | ≥ 5000 | – | – | 96% | – | – | 63% | –
N=C(N)c1cc2c(C=Cc3ccccc3)cccc2s1 [Compound 63, 4-(E/Z-2-Phenylethenyl)benzo[b]thiophene-2-carboxamidine hydrochloride] | 0.14 µM | 86 | 12 µM | 1250 | 175 µM | – | – | – | – | – | –
CCCCC=Cc1cccc2sc(C(=N)N)cc12 [Compound 29, 4-(E/Z-Hex-1-enyl)benzo[b]thiophene-2-carboxamidine hydrochloride] | 0.34 µM | 250 | 85 µM | 718 | 244 µM | – | – | – | – | – | –
CCCCCCc1cccc2sc(C(=N)N)cc12.Cl [Compound 13, 4-(Hexyl)benzo[b]thiophene-2-carboxamidine hydrochloride] | 0.42 µM | 214 | 90 µM | 464 | 195 µM | – | – | – | – | – | –
CCCc1cccc2sc(C(=N)N)cc12.Cl [Compound 9, 4-Propylbenzo[b]thiophene-2-carboxamidine hydrochloride] | 0.66 µM | 250 | 165 µM | 902 | 595 µM | – | – | – | – | – | –
Cl.N=C(N)c1cc2cc(-c3ccccc3)ccc2s1 [Compound 124, 5-Phenylbenzo[b]thiophene-2-carboxamidine hydrochloride] | 1.2 µM | 215 | 258 µM | ≥ 10000 | – | – | 90% | – | – | – | –
Cl.N=C(N)c1cc2c(C#Cc3ccco3)cccc2s1 [Compound 75, 4-[(Furan-2-yl)ethynyl]benzo[b]thiophene-2-carboxamidine hydrochloride] | 0.17 µM | 194 | 33 µM | 1694 | 288 µM | – | – | – | – | – | –
C#Cc1cccc2sc(C(=N)N)cc12.Cl [Compound 39, 4-Ethynylbenzo[b]thiophene-2-carboxamidine hydrochloride] | 0.66 µM | 436 | 288 µM | 661 | 704 µM | – | – | – | – | – | –
Cl.N=C(N)c1cc2c(-c3ccco3)cccc2s1 [Compound 49, 4-(Furan-2-yl)benzo[b]thiophene-2-carboxamidine hydrochloride] | 0.36 µM | 53 | 19 µM | 1000 | 360 µM | – | – | – | – | – | –
CC(C)/C=C/c1cccc2sc(C(=N)N)cc12.Cl [Compound 23, 4-(E-3-Methylbut-1-enyl)benzo[b]thiophene-2-carboxamidine hydrochloride] | 0.13 µM | 315 | 41 µM | 4838 | 629 µM | – | – | – | – | – | –
Cl.N=C(N)c1cc2ccccc2s1 [Compound 1, Benzo[b]thiophene-2-carboxamidine hydrochloride] | 4.9 µM | > 200 | – | > 200 | – | – | 78% | – | – | 77% | 3.5%
C=Cc1ccc2sc(C(=N)N)cc2c1.Cl [Compound 114, 5-(Ethenyl)benzo[b]thiophene-2-carboxamidine hydrochloride] | 1.6 µM | 23 | 37 µM | 180 | 288 µM | – | – | – | – | – | –
